Organism: Rattus norvegicus
Experiment: DrugMatrix - Regimen: Daily Repeat
Format: toxicity, organism-based, Sprague-Dawley
Design: regimen Daily Repeat, gender Male, age 6-8 weeks
Conditions: in vivo, po, […], route oral GAVAGE, dose 0.33 mg/Kg, dose level Low; for ABSOLUTE BASOPHIL / ABSOLUTE EOSINOPHIL / ABSOLUTE LYMPHOCYTE / ABSOLUTE MONOCYTE / ABSOLUTE SEGMENTED NEUTROPHIL / BASOPHIL / EOSINOPHIL / ERYTHROCYTE COUNT / HEMATOCRIT / HEMOGLOBIN / LEUKOCYTE COUNT / LYMPHOCYTE / MEAN CORPUSCULAR HEMOGLOBIN / MEAN CORPUSCULAR HEMOGLOBIN CONCENTRATION / MEAN CORPUSCULAR VOLUME / MONOCYTE / NEUTROPHIL / NUCLEATED RED BLOOD CELLS / PLATELET COUNT: tissue Blood; for ALANINE AMINOTRANSFERASE / ALBUMIN / ALKALINE PHOSPHATASE / ASPARTATE AMINOTRANSFERASE / BLOOD UREA NITROGEN / CARBON DIOXIDE / CHLORIDE / CHOLESTEROL / CREATINE PHOSPHOKINASE / CREATININE / GLUCOSE / LACTATE DEHYDROGENASE / LIPASE / PHOSPHORUS / POTASSIUM / SODIUM / TOTAL BILIRUBIN / TOTAL PROTEIN / URIC ACID: tissue Plasma

COc1ccc2[nH]cc(CCNC(C)=O)c2c1 [MELATONIN]
ABSOLUTE BASOPHIL (72 h, time 3 day): 0 CELLS/uL | ABSOLUTE EOSINOPHIL (72 h, time 3 day): 0 CELLS/uL | ABSOLUTE LYMPHOCYTE (72 h, time 3 day): 12175.67 CELLS/uL | ABSOLUTE MONOCYTE (72 h, time 3 day): 180.67 CELLS/uL | ABSOLUTE SEGMENTED NEUTROPHIL (72 h, time 3 day): 1643.67 CELLS/uL | BASOPHIL (72 h, time 3 day): 0% | EOSINOPHIL (72 h, time 3 day): 0% | ERYTHROCYTE COUNT (72 h, time 3 day): 5.39 x10E6/uL | HEMATOCRIT (72 h, time 3 day): 34.47% | HEMOGLOBIN (72 h, time 3 day): 13.5 G/DL | LEUKOCYTE COUNT (72 h, time 3 day): 14 x10E3/uL | LYMPHOCYTE (72 h, time 3 day): 87.33% | MEAN CORPUSCULAR HEMOGLOBIN (72 h, time 3 day): 25.1 pg | MEAN CORPUSCULAR HEMOGLOBIN CONCENTRATION (72 h, time 3 day): 39.17 G/DL | MEAN CORPUSCULAR VOLUME (72 h, time 3 day): 64.03 fL | MONOCYTE (72 h, time 3 day): 1.33% | NEUTROPHIL (72 h, time 3 day): 11.33% | NUCLEATED RED BLOOD CELLS (72 h, time 3 day): 0 /100WBC | PLATELET COUNT (72 h, time 3 day): 1125.33 x10E3/uL | ALANINE AMINOTRANSFERASE (72 h, time 3 day): 65 u/L | ALBUMIN (72 h, time 3 day): 4 G/DL | ALKALINE PHOSPHATASE (72 h, time 3 day): 447.33 u/L | ASPARTATE AMINOTRANSFERASE (72 h, time 3 day): 76.67 u/L | BLOOD UREA NITROGEN (72 h, time 3 day): 13.33 mg/dL | CARBON DIOXIDE (72 h, time 3 day): 31 mmol/L | CHLORIDE (72 h, time 3 day): 102 MEQ/L | CHOLESTEROL (72 h, time 3 day): 74.33 mg/dL | CREATINE PHOSPHOKINASE (72 h, time 3 day): 191.33 u/L | CREATININE (72 h, time 3 day): 0.26 mg/dL | GLUCOSE (72 h, time 3 day): 163.33 mg/dL | LACTATE DEHYDROGENASE (72 h, time 3 day): 156.67 u/L | LIPASE (72 h, time 3 day): 10.33 u/L | PHOSPHORUS (72 h, time 3 day): 11.6 mg/dL | POTASSIUM (72 h, time 3 day): 6.23 MEQ/L | SODIUM (72 h, time 3 day): 142.1 MEQ/L | TOTAL BILIRUBIN (72 h, time 3 day): 0.2 mg/dL | TOTAL PROTEIN (72 h, time 3 day): 5.03 G/DL | URIC ACID (72 h, time 3 day): 1.47 mg/dL | ABSOLUTE BASOPHIL (120 h, time 5 day): 0 CELLS/uL | ABSOLUTE EOSINOPHIL (120 h, time 5 day): 0 CELLS/uL | ABSOLUTE LYMPHOCYTE (120 h, time 5 day): 12476.67 CELLS/uL | ABSOLUTE MONOCYTE (120 h, time 5 day): 229.67 CELLS/uL | ABSOLUTE SEGMENTED NEUTROPHIL (120 h, time 5 day): 1393.67 CELLS/uL | BASOPHIL (120 h, time 5 day): 0% | EOSINOPHIL (120 h, time 5 day): 0% | ERYTHROCYTE COUNT (120 h, time 5 day): 5.39 x10E6/uL | HEMATOCRIT (120 h, time 5 day): 32.43% | HEMOGLOBIN (120 h, time 5 day): 13.13 G/DL | LEUKOCYTE COUNT (120 h, time 5 day): 14.1 x10E3/uL | LYMPHOCYTE (120 h, time 5 day): 88.33% | MEAN CORPUSCULAR HEMOGLOBIN (120 h, time 5 day): 24.4 pg | MEAN CORPUSCULAR HEMOGLOBIN CONCENTRATION (120 h, time 5 day): 40.53 G/DL | MEAN CORPUSCULAR VOLUME (120 h, time 5 day): 60.23 fL | MONOCYTE (120 h, time 5 day): 1.67% | NEUTROPHIL (120 h, time 5 day): 10% | NUCLEATED RED BLOOD CELLS (120 h, time 5 day): 0 /100WBC | PLATELET COUNT (120 h, time 5 day): 1131.67 x10E3/uL | ALANINE AMINOTRANSFERASE (120 h, time 5 day): 56.33 u/L | ALBUMIN (120 h, time 5 day): 4.1 G/DL | ALKALINE PHOSPHATASE (120 h, time 5 day): 363.67 u/L | ASPARTATE AMINOTRANSFERASE (120 h, time 5 day): 76 u/L | BLOOD UREA NITROGEN (120 h, time 5 day): 16 mg/dL | CARBON DIOXIDE (120 h, time 5 day): 30 mmol/L | CHLORIDE (120 h, time 5 day): 102 MEQ/L | CHOLESTEROL (120 h, time 5 day): 64 mg/dL | CREATINE PHOSPHOKINASE (120 h, time 5 day): 170.33 u/L | CREATININE (120 h, time 5 day): 0.24 mg/dL | GLUCOSE (120 h, time 5 day): 163 mg/dL | LACTATE DEHYDROGENASE (120 h, time 5 day): 89.33 u/L | LIPASE (120 h, time 5 day): 10.67 u/L | PHOSPHORUS (120 h, time 5 day): 10.7 mg/dL | POTASSIUM (120 h, time 5 day): 5.96 MEQ/L | SODIUM (120 h, time 5 day): 142.07 MEQ/L | TOTAL BILIRUBIN (120 h, time 5 day): 0.17 mg/dL | TOTAL PROTEIN (120 h, time 5 day): 5.53 G/DL | URIC ACID (120 h, time 5 day): 1.3 mg/dL
